Data: US9241924B2, “Compositions of 5-ethyl-2-{4-[4-(4-tetrazol-1-yl-phenoxymethyl)-thiazol-2-yl]-piperidin-1-yl}-pyrimidine” (CYMABAY THERAPEUTICS, INC., priority 2010, dated 2016)

Assays:
[1] = Non-sink dissolution of melt extruded compositions in simulated fasted state intestinal fluid; format: physicochemical
Description: (§1) Solid dispersion formulations of Compound A in Eudragit® E PO (Formulation 2) and Kollidon® VA 64 (Formulation 3) were examined for dissolution behavior under non-sink conditions to assess oral bioavailability enhancement. Studies were conducted in three different media preparations, including: simulated gastric fluid, fed state simulated intestinal fluid and fasted state simulated intestinal fluid, which are presented in Table 2, Table 3 and Table 4 and FIG. 1, FIG. 2 and FIG. 3.

[2] = In vitro dissolution of HPMCAS dispersions (Table 7b, simulated gastric fluid); format: physicochemical; conditions: dose 200 μg/mL, initial ninety minutes
Description: (§2) Samples were weighed, dissolved in the buffer system, centrifuged, and the supernatant analyzed by HPLC at 10, 20, 40, and 90 minutes.
(§3) Tables 7a and 7b and FIG. 6 compares in vitro dissolution performance of Compound A:CAP SDD with that of crystalline of Compound A, HPMCAS-MG, and HPMCAS-HG.

[3] = In vivo systemic exposure in male beagle dogs, oral dosing; conditions: dog; for AUC(0-t): read-out: AUC0-24 hr
Description: In vivo testing was performed in male dogs to compare the systemic exposure of the 25% Compound A:CAP SDD (n=2) to that of the crystalline Compound A (n=2).

[4] = In vitro dissolution test in NaTC/POPC in PBS (pH 6.5); format: physicochemical; conditions: theoretical Cmax 200 μg/mL
Description: as §2, §3

[5] = Non-sink dissolution of melt extruded compositions in simulated fed state intestinal fluid; format: physicochemical
Description: as §1

[6] = Non-sink dissolution of melt extruded formulations in simulated gastric fluid; format: physicochemical
Description: as §1

[7] = Phase 1 multiple ascending dose study, pharmacokinetics; format: in vivo; conditions: human, blood, po, repeat (5) daily doses, mean (±SD); for AUC(0-t): read-out: AUC0-24 h
Description: (§4) This is a single center, phase 1, double-blind, placebo-controlled, multiple ascending dose study of Compound A given orally as a reformulated tablet (spray dried dispersion, or SDD) to otherwise healthy subjects with “pre-diabetes” (impaired fasting glucose, impaired glucose tolerance, or HbA1C≧5.8), or diet-controlled type 2 diabetes mellitus. The study was designed to evaluate the safety, tolerability, pharmacokinetics (PK), and proof-of-concept pharmacodynamics of Compound A. Each dosing cohort consisted of a screening period to assess eligibility, a dosing and observational period, and a follow-up period.
The screening visit was used to assess preliminary eligibility in potential subjects who provided informed consent. Final eligibility for study enrollment was determined after check-in to the clinic on Day −3, before randomization and dosing (on Day 1). Eleven eligible subjects who successfully completed screening were enrolled into the lowest dose cohort that was yet to be filled, and randomly assigned in a double-blind fashion to receive Compound A (n=8) or matched placebo (n=3). Up to 4 additional subjects were admitted to the clinic and available as back-ups in the event that 1 of the original 11 subjects was not dosed for any reason.
Each of these study cohorts was enrolled and completed independently, and in sequential fashion. After completion of the inpatient observational period at Day 8, blinded clinical safety and laboratory parameters (including PK) were assessed in a teleconference between the Principal Investigator, or Sub-Investigator, and the Metabolex Medical Monitor, after which subject dosing assignments could have been unblinded, if necessary, for determination of dose-limiting toxicities (DLTs). If two dose-limiting toxicities (DLTs) occurred within the same treatment cohort in subjects receiving active drug, no further dose escalation would have been allowed, and the maximum tolerated dose (MTD) would have been defined by the dose in the previous cohort. Additionally, dosing may have been halted at the discretion of the sponsor depending on observed Compound A concentrations and PK parameters from the preceding cohort in context of the safety and pharmacodynamic profile of the preceding cohorts.
On Day −2, following a 10 hour overnight fast, up to 15 eligible subjects underwent a baseline MMTT administered between 9:30 and 10:15 am, for the assessment of glucose and insulin response and of total GLP-1 and glucagon. On Day −1, following a 10 hour overnight fast, up to 15 eligible subjects also underwent a baseline OGTT (75 g) administered at the identical time of day as the MMTT, for assessment of the same markers. After the baseline OGTT assessments, 11 subjects were enrolled and randomized into the current dosing cohort. Up to 4 additional subjects remained overnight to be available as back-ups in the event that 1 of the original 11 subjects was, for any reason, not dosed. If more than 11 eligible subjects meet the cohort requirements, the excess subjects may have been included in the next cohort check-in, if within the 35 day screening window and they continued to meet eligibility. On Days 1 through 5, following a 10 hour overnight fast, subjects received daily doses of Compound A or placebo exactly 2 hours earlier than the start of the baseline MMTT, under fasted conditions. The inpatient period in clinic began on Day −2 and concluded on Day 8, following the final inpatient study procedure. The following assessments were made in temporal relationship to the administration of the study drug, administered at Day 1, Time 0, unless otherwise stated: • Pharmacokinetic Blood and Urine Sampling: • Subjects randomized to Compound A or placebo underwent single dose (Day 1) and repeat dose (Day 4) PK. Compound A was measured pre-dose (t −30 and 0 min) on Day 1 and at 20 and 40 minutes, and 1, 2, 3, 4, 6, 8, 12, and 24 hours post-dose. […]

[8] = tested on: subjects with pre-diabetes; assay: Phase 1c study C, pharmacodynamics (MMTT/OGTT glucose excursion, fasting glucose); format: in vivo, human
Description: as §4
On Day −2, following a 10 hour overnight fast, up to 15 eligible subjects underwent a baseline MMTT administered between 9:30 and 10:15 am, for the assessment of glucose and insulin response and of total GLP-1 and glucagon. On Day −1, following a 10 hour overnight fast, up to 15 eligible subjects also underwent a baseline OGTT (75 g) administered at the identical time of day as the MMTT, for assessment of the same markers. […] Compound A was measured pre-dose (t −30 and 0 min) on Day 1 and at 20 and 40 minutes, and 1, 2, 3, 4, 6, 8, 12, and 24 hours post-dose. Compound A was measured at identical timepoints associated with the Day 4 dose, but included additional measurements at 48 and 72 hours post-dose (Day 7). […]

[9] = SDD tablet 25 mg orally once daily
[10] = SDD tablet 100 mg orally once daily
[11] = SDD tablets 300 mg orally once daily
[12] = SDD tablets 600 mg orally once daily

Q: With CCc1cnc(N2CCC(c3nc(COc4ccc(-n5cnnn5)cc4)cs3)CC2)nc1 [Compound A Crystalline, 5-ethyl-2-{4-[4-(4-tetrazol-1-yl-phenoxymethyl)-thiazol-2-yl]-piperidin-1-yl}-pyrimidine] as the compound, how does the AUC0-2 hr [1] read?
A: 51.205 µg·h/mL

Q: What about the AUC0-4 hr [1] of the same compound?
A: 103.281 µg·h/mL

Q: And the AUC0-24 hr [1]?
A: 434.380 µg·h/mL

Q: What about the Cmax [1] of the same compound?
A: 29891 ng/mL

Q: What about the Tmax [1] of the same compound?
A: 0.50 h

Q: And the AUC90 [2]?
A: 1000 µg·min/mL

Q: What about the Cmax90 [2] of the same compound?
A: 8000 ng/mL

Q: What about the Cmax ([3]; 10 mg/kg orally) of the same compound?
A: 560 ng/mL

Q: And the AUC(0-t) ([3]; 10 mg/kg orally)?
A: 3.9 µg·h/mL

Q: And the Cmax ([3]; 200 mg/kg orally)?
A: 2000 ng/mL

Q: And the AUC(0-t) ([3]; 200 mg/kg orally)?
A: 17 µg·h/mL

Q: What about the AUC0-90 ([4]; NaTC/POPC in PBS pH 6.5, through 90 minutes) of the same compound?
A: 950 µg·min/mL

Q: What about the “Cmax (μg/mL Compound A)” value ([4]; NaTC/POPC in PBS pH 6.5, up to 90 min) of the same compound?
A: 12 µg/mL

Q: And the AUC0-2 hr [5]?
A: 100.045 µg·h/mL

Q: What about the AUC0-4 hr [5] of the same compound?
A: 211.597 µg·h/mL

Q: What about the AUC0-24 hr [5] of the same compound?
A: 1148.003 µg·h/mL

Q: And the Cmax [5]?
A: 60182 ng/mL

Q: And the Tmax [5]?
A: 2 h

Q: And the AUC0-2 hr [6]?
A: 321 µg·h/mL

Q: What about the AUC0-4 hr [6] of the same compound?
A: 727 µg·h/mL

Q: What about the AUC0-24 hr [6] of the same compound?
A: 4494 µg·h/mL

Q: What about the Cmax [6] of the same compound?
A: 247000 ng/mL

Q: And the Tmax [6]?
A: 2 h

Q: Which AUC(0-inf) [7, 9] does the source give for CCc1cnc(N2CCC(c3nc(COc4ccc(-n5cnnn5)cc4)cs3)CC2)nc1 [Compound A, 5-ethyl-2-{4-[4-(4-tetrazol-1-yl-phenoxymethyl)-thiazol-2-yl]-piperidin-1-yl}-pyrimidine] here?
A: 6.5 µg·h/mL

Q: What about the Tmax [7, 9] of the same compound?
A: 5.4 h

Q: And the half-life [7, 9]?
A: 14 h

Q: And the AUC(0-t) [7, 9]?
A: 4.15 µg·h/mL

Q: What about the Cmax ([7]; SDD tablet 25 mg orally once daily, subjects with pre-diabetes) of the same compound?
A: 346 ng/mL

Q: What about the AUC(0-inf) [7, 10] of the same compound?
A: 24.6 µg·h/mL

Q: And the Cmax [7, 10]?
A: 1150 ng/mL

Q: And the Tmax [7, 10]?
A: 2.8 h

Q: What about the half-life [7, 10] of the same compound?
A: 18.3 h

Q: And the AUC(0-t) [7, 10]?
A: 13.3 µg·h/mL

Q: And the AUC(0-inf) [7, 11]?
A: 45 µg·h/mL

Q: What about the Cmax [7, 11] of the same compound?
A: 2330 ng/mL

Q: And the Tmax [7, 11]?
A: 2.2 h

Q: What about the half-life [7, 11] of the same compound?
A: 15.3 h

Q: And the AUC(0-t) [7, 11]?
A: 30 µg·h/mL

Q: What about the Cmax [7, 12] of the same compound?
A: 3560 ng/mL

Q: And the Tmax [7, 12]?
A: 3.3 h

Q: And the AUC(0-t) [7, 12]?
A: 57.9 µg·h/mL

Q: And the “fasting plasma glucose (FPG) and glucose excursion following MMTT and OGTT” value ([8]; studies conducted to date)?
A: consistently lowered

Q: What about the “reduction in glucose, net of placebo” value ([8]; subsets of subjects with the greatest degree of glucose intolerance at baseline, pooled, any dose, Phase 1c (study C)) of the same compound?
A: up to 77%
